What was measured:
Nav 1.5 = Nav 1.5 (Homo sapiens (Human), UniProt Q14524); test: Nav 1.5 in vitro PX assay (PatchXpress whole cell voltage clamp); type: cell-based; conditions: 293 cells stably transfected with Nav 1.5; second part of table; read-out: Nav1.5 PX IC50
How it was run: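 HEK293 cells stably expressing Nav 1.5, whole-cell voltage clamp held at −50 mV; 20 msec test pulses to 0 mV at 0.1 Hz, each preceded by a step to −120 mV.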

Nav 1.7 = Nav 1.7 (Homo sapiens (Human), UniProt Q15858); test: Nav 1.7 in vitro PX assay (PatchXpress whole cell voltage clamp); type: cell-based; conditions: 293 cells, human Nav1.7, partially inactivated state; read-out: Nav1.7 PX IC50 IP
Chain of Nav 1.7 (Q15858 whole entry): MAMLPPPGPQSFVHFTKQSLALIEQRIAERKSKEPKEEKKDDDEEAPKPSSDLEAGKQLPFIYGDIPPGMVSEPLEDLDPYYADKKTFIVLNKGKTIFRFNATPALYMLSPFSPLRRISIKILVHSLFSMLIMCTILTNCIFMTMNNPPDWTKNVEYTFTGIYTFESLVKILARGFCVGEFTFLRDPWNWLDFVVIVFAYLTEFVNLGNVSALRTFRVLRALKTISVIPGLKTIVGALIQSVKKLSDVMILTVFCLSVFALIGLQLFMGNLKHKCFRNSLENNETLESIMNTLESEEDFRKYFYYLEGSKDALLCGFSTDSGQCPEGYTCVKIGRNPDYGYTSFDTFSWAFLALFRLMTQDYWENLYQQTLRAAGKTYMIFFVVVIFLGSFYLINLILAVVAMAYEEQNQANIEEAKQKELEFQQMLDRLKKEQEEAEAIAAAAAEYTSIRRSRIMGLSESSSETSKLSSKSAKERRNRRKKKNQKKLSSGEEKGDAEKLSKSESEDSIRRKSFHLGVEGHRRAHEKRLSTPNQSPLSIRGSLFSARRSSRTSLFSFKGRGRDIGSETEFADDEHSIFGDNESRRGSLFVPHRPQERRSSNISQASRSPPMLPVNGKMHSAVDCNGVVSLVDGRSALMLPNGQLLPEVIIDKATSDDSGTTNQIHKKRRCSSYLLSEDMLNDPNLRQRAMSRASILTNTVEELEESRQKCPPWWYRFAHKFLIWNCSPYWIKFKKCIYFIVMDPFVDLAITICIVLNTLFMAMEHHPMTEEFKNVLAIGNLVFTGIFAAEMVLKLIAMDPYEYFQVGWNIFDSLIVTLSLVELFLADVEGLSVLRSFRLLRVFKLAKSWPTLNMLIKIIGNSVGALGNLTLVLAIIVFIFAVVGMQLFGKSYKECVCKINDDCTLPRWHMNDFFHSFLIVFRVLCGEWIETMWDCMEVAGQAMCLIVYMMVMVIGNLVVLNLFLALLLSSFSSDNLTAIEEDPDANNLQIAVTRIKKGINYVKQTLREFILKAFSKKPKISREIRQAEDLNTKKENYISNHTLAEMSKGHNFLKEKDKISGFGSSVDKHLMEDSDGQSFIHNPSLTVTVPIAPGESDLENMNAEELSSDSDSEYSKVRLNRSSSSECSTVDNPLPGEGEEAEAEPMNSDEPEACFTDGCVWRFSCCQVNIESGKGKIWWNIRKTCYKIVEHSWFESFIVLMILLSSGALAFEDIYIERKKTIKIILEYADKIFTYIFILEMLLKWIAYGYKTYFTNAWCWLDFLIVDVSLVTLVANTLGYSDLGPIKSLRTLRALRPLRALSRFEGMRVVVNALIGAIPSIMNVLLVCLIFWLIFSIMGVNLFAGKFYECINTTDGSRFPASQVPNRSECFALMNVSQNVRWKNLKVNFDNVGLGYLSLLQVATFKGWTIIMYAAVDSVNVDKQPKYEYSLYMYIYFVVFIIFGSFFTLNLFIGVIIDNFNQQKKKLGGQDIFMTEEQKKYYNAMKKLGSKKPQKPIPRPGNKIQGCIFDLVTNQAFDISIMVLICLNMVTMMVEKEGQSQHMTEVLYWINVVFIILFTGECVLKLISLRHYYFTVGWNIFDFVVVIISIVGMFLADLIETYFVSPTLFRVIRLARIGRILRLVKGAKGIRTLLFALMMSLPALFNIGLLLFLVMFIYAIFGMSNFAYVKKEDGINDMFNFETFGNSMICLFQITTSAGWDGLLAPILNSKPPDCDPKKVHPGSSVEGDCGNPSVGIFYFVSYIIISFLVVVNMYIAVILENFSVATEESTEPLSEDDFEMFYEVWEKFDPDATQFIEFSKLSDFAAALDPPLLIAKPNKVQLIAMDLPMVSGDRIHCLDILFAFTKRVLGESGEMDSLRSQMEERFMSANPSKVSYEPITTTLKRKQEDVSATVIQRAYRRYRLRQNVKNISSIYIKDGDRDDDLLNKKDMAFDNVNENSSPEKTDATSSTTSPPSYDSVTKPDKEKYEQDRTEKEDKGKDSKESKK
How it was run: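 HEK293 cells stably expressing human Nav1.7, whole-cell voltage clamp on PatchXpress, held at potential giving 20–50% inactivation; current elicited by 20 msec pulse to −10 mV.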

Chain of Nav 1.5 (Q14524 whole entry): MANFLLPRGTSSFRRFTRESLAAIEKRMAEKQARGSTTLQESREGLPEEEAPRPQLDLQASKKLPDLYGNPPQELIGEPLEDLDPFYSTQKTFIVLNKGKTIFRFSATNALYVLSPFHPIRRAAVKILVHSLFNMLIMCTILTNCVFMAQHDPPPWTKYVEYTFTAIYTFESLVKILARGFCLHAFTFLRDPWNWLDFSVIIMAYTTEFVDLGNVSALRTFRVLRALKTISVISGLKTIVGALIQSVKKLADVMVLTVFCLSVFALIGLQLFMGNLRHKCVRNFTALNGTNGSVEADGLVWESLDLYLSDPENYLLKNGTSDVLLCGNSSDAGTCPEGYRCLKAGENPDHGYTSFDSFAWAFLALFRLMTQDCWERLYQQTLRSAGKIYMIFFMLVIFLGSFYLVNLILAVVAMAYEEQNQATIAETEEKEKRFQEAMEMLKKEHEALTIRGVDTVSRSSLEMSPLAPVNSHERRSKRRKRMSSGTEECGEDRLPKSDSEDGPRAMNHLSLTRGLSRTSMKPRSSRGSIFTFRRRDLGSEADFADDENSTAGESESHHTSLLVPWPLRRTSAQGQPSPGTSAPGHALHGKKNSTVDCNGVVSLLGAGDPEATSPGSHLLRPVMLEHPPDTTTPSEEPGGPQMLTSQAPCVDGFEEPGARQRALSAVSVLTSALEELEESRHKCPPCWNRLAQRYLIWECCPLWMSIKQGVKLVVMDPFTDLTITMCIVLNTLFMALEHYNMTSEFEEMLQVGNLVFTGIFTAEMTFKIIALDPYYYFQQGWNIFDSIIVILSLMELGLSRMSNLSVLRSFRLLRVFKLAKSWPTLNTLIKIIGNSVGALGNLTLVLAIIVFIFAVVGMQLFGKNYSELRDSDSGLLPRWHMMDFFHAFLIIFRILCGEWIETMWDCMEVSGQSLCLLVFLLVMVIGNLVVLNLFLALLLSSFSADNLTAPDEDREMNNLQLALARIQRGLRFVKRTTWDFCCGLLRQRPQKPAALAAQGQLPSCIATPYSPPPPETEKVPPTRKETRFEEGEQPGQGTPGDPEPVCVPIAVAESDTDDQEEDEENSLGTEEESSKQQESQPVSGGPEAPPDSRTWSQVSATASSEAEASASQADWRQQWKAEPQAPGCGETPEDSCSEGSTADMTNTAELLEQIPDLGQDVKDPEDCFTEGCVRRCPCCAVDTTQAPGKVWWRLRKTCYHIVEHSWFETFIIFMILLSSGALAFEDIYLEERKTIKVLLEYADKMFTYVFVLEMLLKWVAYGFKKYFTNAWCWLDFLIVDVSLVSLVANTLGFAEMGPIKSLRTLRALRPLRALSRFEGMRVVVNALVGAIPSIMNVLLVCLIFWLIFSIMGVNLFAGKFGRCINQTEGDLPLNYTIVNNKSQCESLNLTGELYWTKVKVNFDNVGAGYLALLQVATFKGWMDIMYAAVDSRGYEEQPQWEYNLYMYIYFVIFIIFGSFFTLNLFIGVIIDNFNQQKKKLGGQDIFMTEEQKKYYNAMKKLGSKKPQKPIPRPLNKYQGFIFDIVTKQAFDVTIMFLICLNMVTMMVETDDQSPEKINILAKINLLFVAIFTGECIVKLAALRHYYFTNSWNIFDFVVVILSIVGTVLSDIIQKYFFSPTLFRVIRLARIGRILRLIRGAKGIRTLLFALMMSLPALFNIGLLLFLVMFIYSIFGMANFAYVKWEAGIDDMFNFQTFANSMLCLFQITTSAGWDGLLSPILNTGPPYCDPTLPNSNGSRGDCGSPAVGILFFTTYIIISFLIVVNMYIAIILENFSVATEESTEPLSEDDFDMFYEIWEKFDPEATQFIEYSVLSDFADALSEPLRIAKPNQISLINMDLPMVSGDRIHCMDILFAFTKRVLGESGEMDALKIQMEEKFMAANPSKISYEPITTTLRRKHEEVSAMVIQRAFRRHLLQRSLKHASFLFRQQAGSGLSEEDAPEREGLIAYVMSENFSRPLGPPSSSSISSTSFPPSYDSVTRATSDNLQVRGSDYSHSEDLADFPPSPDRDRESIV

How did the IC50 (Nav 1.5) turn out when `COc1cc(-c2cccc(F)c2)c(C#N)cc1-c1nccc2cc(S(=O)(=O)Nc3ncns3)ccc12` [Example 340, 1-(2-CYANO-3′-FLUORO-5-METHOXY-[1,1′-BIPHENYL]-4-YL)-N-(1,2,4-THIADIAZOL-5-YL)ISOQUINOLINE-6-SULFONAMIDE] was run?
The IC50 was over 30000 nM.

What about the IC50 (Nav 1.7) of the same molecule?
The IC50 was 56 nM.

What does the source list for `COc1cc(C(F)(F)F)ccc1-c1nccc2cc(S(=O)(=O)Nc3nc(Cl)cs3)ccc12` [Example 419, N-(4-CHLOROTHIAZOL-2-YL)-1-(2-METHOXY-4-(TRIFLUOROMETHYL)PHENYL)ISOQUINOLINE-6-SULFONAMIDE]?
IC50 (Nav 1.5): > 30000 nM; IC50 (Nav 1.7): 272 nM

`COc1cc(-c2cccc(F)c2)c(Cl)cc1-c1ncnc2cc(S(=O)(=O)Nc3ncns3)ccc12` [Example 521, 4-(2-CHLORO-3′-FLUORO-5-METHOXY-[1,1′-BIPHENYL]-4-YL)-N-(1,2,4-THIADIAZOL-5-YL)QUINAZOLINE-7-SULFONAMIDE] was tested. Which IC50 (Nav 1.5) did it give?
Its IC50 is 4750 nM.

What about the IC50 (Nav 1.7) of the same molecule?
The IC50 was 19 nM.

With `COc1cc(C(F)(F)F)ccc1-c1ncc(O)c2cc(S(=O)(=O)Nc3nccs3)ccc12` [Example 232, 4-HYDROXY-1-(2-METHOXY-4-(TRIFLUOROMETHYL)PHENYL)-N-(THIAZOL-2-YL)ISOQUINOLINE-6-SULFONAMIDE] as the molecule, how does the IC50 (Nav 1.5) read?
Its IC50 is 20400 nM.

What about the IC50 (Nav 1.7) of the same molecule?
Its IC50 is 380 nM.

`COc1cc(C(F)(F)F)ccc1-c1cnnc2cc(S(=O)(=O)Nc3nccs3)ccc12` [Example 259, 4-(2-METHOXY-4-(TRIFLUOROMETHYL)PHENYL)-N-(THIAZOL-2-YL)CINNOLINE-7-SULFONAMIDE] was tested. Which IC50 (Nav 1.5) did it give?
Its IC50 is over 30000 nM.

And the IC50 (Nav 1.7)?
Its IC50 is 320 nM.

What does the source list for `COc1cc(C(F)(F)F)ccc1-c1nccc2cc(S(=O)(=O)Nc3nc(C#N)cs3)ccc12` [Example 421, N-(4-CYANOTHIAZOL-2-YL)-1-(2-METHOXY-4-(TRIFLUOROMETHYL)PHENYL)ISOQUINOLINE-6-SULFONAMIDE]?
IC50 (Nav 1.5): > 30000 nM; IC50 (Nav 1.7): 786 nM

For `COc1cc(C(F)F)c(F)cc1-c1ncnc2cc(S(=O)(=O)Nc3cscn3)ccc12` [Example 513, 4-(4-(difluoromethyl)-5-fluoro-2-methoxyphenyl)-N-(thiazol-4-yl)quinazoline-7-sulfonamide], which IC50 (Nav 1.5) is on record?
Its IC50 is over 30000 nM.

And the IC50 (Nav 1.7)?
The IC50 was 783 nM.

Which IC50 (Nav 1.5) does the source give for `COc1cc(-c2cccc(F)c2)c(C#N)cc1-c1nccc2cc(S(=O)(=O)Nc3ccon3)ccc12` [Example 342, 1-(2-CYANO-3′-FLUORO-5-METHOXY-[1,1′-BIPHENYL]-4-YL)-N-(ISOXAZOL-3-YL)ISOQUINOLINE-6-SULFONAMIDE] here?
The IC50 was over 30000 nM.

What about the IC50 (Nav 1.7) of the same molecule?
The IC50 was 122 nM.

With `COc1cc(Oc2cccc(F)c2)ccc1-c1nccc2cc(S(=O)(=O)Nc3ccncn3)ccc12` [Example 464, 1-(4-(3-FLUOROPHENOXY)-2-METHOXYPHENYL)-N-(PYRIMIDIN-4-YL)ISOQUINOLINE-6-SULFONAMIDE] as the molecule, how does the IC50 (Nav 1.5) read?
Its IC50 is over 30000 nM.

What about the IC50 (Nav 1.7) of the same molecule?
The IC50 was 380 nM.

How did the IC50 (Nav 1.5) turn out when `COc1cc(F)ccc1-c1ncc(F)c2cc(S(=O)(=O)Nc3ncns3)ccc12` [Example 394, 4-FLUORO-1-(4-FLUORO-2-METHOXYPHENYL)-N-(1,2,4-THIADIAZOL-5-YL)ISOQUINOLINE-6-SULFONAMIDE] was run?
Its IC50 is over 30000 nM.

What about the IC50 (Nav 1.7) of the same molecule?
Its IC50 is 338 nM.

With `COc1ccc(-c2cccc(C(F)(F)F)c2)cc1-c1nccc2cc(S(=O)(=O)Nc3nncs3)ccc12` [Example 344, 1-(4-METHOXY-3′-(TRIFLUOROMETHYL)-[1,1′-BIPHENYL]-3-YL)-N-(1,3,4-THIADIAZOL-2-YL)ISOQUINOLINE-6-SULFONAMIDE] as the molecule, how does the IC50 (Nav 1.5) read?
Its IC50 is over 30000 nM.

What about the IC50 (Nav 1.7) of the same molecule?
Its IC50 is 34 nM.

Which results are given for `COc1cc(C(F)(F)F)ccc1-c1n[nH]c(=O)c2cc(S(=O)(=O)Nc3nccs3)ccc12` [Example 293, 1-(2-METHOXY-4-(TRIFLUOROMETHYL)PHENYL)-4-OXO-N-(THIAZOL-2-YL)-3,4-DIHYDROPHTHALAZINE-6-SULFONAMIDE]?
IC50 (Nav 1.5): > 30000 nM; IC50 (Nav 1.7): 150 nM

What does the source list for `COc1cc(-c2ccc(F)c(Cl)c2)ccc1-c1nccc2cc(S(=O)(=O)Nc3ccncn3)ccc12` [Example 490, 1-(3′-CHLORO-4′-FLUORO-3-METHOXY-[1,1′-BIPHENYL]-4-YL)-N-(PYRIMIDIN-4-YL)ISOQUINOLINE-6-SULFONAMIDE]?
IC50 (Nav 1.5): > 30000 nM; IC50 (Nav 1.7): 62 nM

For `COc1cc(Cl)ccc1-c1nccc2cc(S(=O)(=O)Nc3ncns3)ccc12` [Example 368, 1-(4-CHLORO-2-METHOXYPHENYL)-N-(1,2,4-THIADIAZOL-5-YL)ISOQUINOLINE-6-SULFONAMIDE], which IC50 (Nav 1.5) is on record?
The IC50 was over 30000 nM.

And the IC50 (Nav 1.7)?
Its IC50 is 122 nM.

For `COc1cc(C(F)F)c(C2CC2)cc1-c1nccc2cc(S(=O)(=O)Nc3ccncn3)ccc12` [Example 459, 1-(5-CYCLOPROPYL-4-(DIFLUOROMETHYL)-2-METHOXYPHENYL)-N-(PYRIMIDIN-4-YL)ISOQUINOLINE-6-SULFONAMIDE], which IC50 (Nav 1.5) is on record?
Its IC50 is over 30000 nM.

And the IC50 (Nav 1.7)?
Its IC50 is 532 nM.

With `COc1cc(C(F)(F)F)ccc1-c1ccnc2cc(S(=O)(=O)Nc3nccs3)c(F)cc12` [Example 319, 6-FLUORO-4-(2-METHOXY-4-(TRIFLUOROMETHYL)PHENYL)-N-(THIAZOL-2-YL)QUINOLINE-7-SULFONAMIDE 2,2,2-TRIFLUOROACETATE] as the molecule, how does the IC50 (Nav 1.5) read?
Its IC50 is 2790 nM.

What about the IC50 (Nav 1.7) of the same molecule?
Its IC50 is 407 nM.

With `COc1ccc(-c2ccc(-c3nccc4cc(S(=O)(=O)Nc5ccncn5)ccc34)c(OC)c2)cc1` [Example 468, 1-(3,4′-DIMETHOXY-[1,1′-BIPHENYL]-4-YL)-N-(PYRIMIDIN-4-YL)ISOQUINOLINE-6-SULFONAMIDE] as the molecule, how does the IC50 (Nav 1.5) read?
The IC50 was over 30000 nM.

And the IC50 (Nav 1.7)?
The IC50 was 359 nM.

What does the source list for `COc1cc(-c2cccc(C(F)(F)F)c2)ccc1-c1ncnc2cc(S(=O)(=O)Nc3ccncn3)ccc12` [Example 528, 4-(3-METHOXY-3′-(TRIFLUOROMETHYL)-[1,1′-BIPHENYL]-4-YL)-N-(PYRIMIDIN-4-YL)QUINAZOLINE-7-SULFONAMIDE]?
IC50 (Nav 1.5): > 30000 nM; IC50 (Nav 1.7): 58 nM

What does the source list for `COc1cc(-c2cc(F)cc(F)c2)ccc1-c1ncnc2cc(S(=O)(=O)Nc3nncs3)ccc12` [Example 531, 4-(3′,5′-DIFLUORO-3-METHOXY-[1,1′-BIPHENYL]-4-YL)-N-(1,3,4-THIADIAZOL-2-YL)QUINAZOLINE-7-SULFONAMIDE]?
IC50 (Nav 1.5): > 30000 nM; IC50 (Nav 1.7): 231 nM

How did the IC50 (Nav 1.5) turn out when `COc1ccccc1-c1nccc2cc(S(=O)(=O)Nc3nccs3)ccc12` [Example 406, 1-(2-METHOXYPHENYL)-N-(THIAZOL-2-YL)ISOQUINOLINE-6-SULFONAMIDE] was run?
Its IC50 is over 30000 nM.

What about the IC50 (Nav 1.7) of the same molecule?
Its IC50 is 456 nM.

Which results are given for `COc1cc(Cl)c(C#N)cc1-c1nccc2cc(S(=O)(=O)Nc3ncns3)ccc12` [Example 336, 1-(4-CHLORO-5-CYANO-2-METHOXYPHENYL)-N-(1,2,4-THIADIAZOL-5-YL)ISOQUINOLINE-6-SULFONAMIDE]?
IC50 (Nav 1.5): > 30000 nM; IC50 (Nav 1.7): 156 nM

Which IC50 (Nav 1.5) does the source give for `COc1cc(-c2ccc(-c3nccc4cc(S(=O)(=O)Nc5ccncn5)ccc34)c(OC)c2)ccc1F` [Example 484, 1-(4′-FLUORO-3,3′-DIMETHOXY-[1,1′-BIPHENYL]-4-YL)-N-(PYRIMIDIN-4-YL)ISOQUINOLINE-6-SULFONAMIDE] here?
Its IC50 is over 30000 nM.

What about the IC50 (Nav 1.7) of the same molecule?
The IC50 was 177 nM.

For `COc1cc(C#N)ccc1-c1cccc2cc(S(=O)(=O)Nc3ncns3)ccc12` [Example 330], which IC50 (Nav 1.5) is on record?
Its IC50 is over 30000 nM.

And the IC50 (Nav 1.7)?
Its IC50 is 118 nM.

For `COc1ccccc1-c1ncnc2cc(S(=O)(=O)Nc3nccs3)ccc12` [Example 272, 4-(2-METHOXYPHENYL)-N-(THIAZOL-2-YL)QUINAZOLINE-7-SULFONAMIDE], which IC50 (Nav 1.5) is on record?
The IC50 was over 30000 nM.

What about the IC50 (Nav 1.7) of the same molecule?
The IC50 was 460 nM.

Which results are given for `COc1cc(-c2cccc(F)c2)c(Cl)cc1-c1ncnc2cc(S(=O)(=O)Nc3nncs3)ccc12` [Example 522, 4-(2-CHLORO-3′-FLUORO-5-METHOXY-[1,1′-BIPHENYL]-4-YL)-N-(1,3,4-THIADIAZOL-2-YL)QUINAZOLINE-7-SULFONAMIDE]?
IC50 (Nav 1.5): > 30000 nM; IC50 (Nav 1.7): 34 nM

Reference: patent publication US9012443B2 (Amgen Inc., priority 2011, dated 2015)
